Blank lines part the entries; values can stand above or below the molecule they belong to.
Key:
melatonin receptors = target: T1, melatonin receptors (Ovis aries, UniProt P48040); test: Binding to melatonin receptors, sheep pars tuberalis cells (competition with 2-iodo-melatonin); details: sheep pars tuberalis membranes
T1 construct: Sheep pars tuberalis membranes are prepared and used as target tissue; from tissue; host or cells: sheep pars tuberalis membranes
Experimental: B1) Study on Sheep Pars Tuberalis Cells
Studies of the binding of the compounds of the invention to melatonin receptors were carried out according to conventional techniques on sheep pars tuberalis cells. The pars tuberalis of the adenohypophysis is in fact characterized, in mammals, by a high density of melatonin receptors (Journal of Neuroendocrinology, 1, pp 1-4, 1989).
1) Sheep pars tuberalis membranes are prepared and used as target tissue in saturation experiments in order to determine the binding capacities and affinities for 2-(^125 I) iodomelatonin.
2) Sheep pars tuberalis membranes are used as target tissue, with the various compounds to be tested, in competitive binding experiments with respect to 2-iodo-melatonin.
Each experiment is carried out in triplicate and a range of different concentrations is tested for each compound.
The results make it possible to determine, after statistical treatment, the binding affinities of the compound tested.

[1] = Foregoing pharmacological Examples (A to I), carbamides or ureas substituted for the compounds of Examples 119 and 131; details: in place of the compounds of Examples 119 and 131
C3H/He mice = test: Free exploratory test in C3H/He mice; type: in vivo; details: oral
Experimental: Effects in the free exploratory test in C3H/He mice
Behavior was assessed in a box subdivided into six equal square exploratory units, which were interconnected by small doors. It could be divided in half lengthwise by closing partitions. Twenty-four hours before the test, each animal was randomly placed in one half of the apparatus, with the temporary partitions in place, in order to become familiarized with it. […]
numbers of attempts towards the unfamiliar compartment latency of the first entry into the unfamiliar compartment time spent in the unfamiliar compartment locomotion in the unfamiliar compartment number of rears in the unfamiliar compartment locomotion in the familiar compartment number of rears in the familiar compartment
Compounds were orally administered at doses of […] (in 1% HEC), 40 minutes before the test.
The […] group received the vehicle under the same conditions.

[2] = 40 minutes before test, statistically significant for the 3 tested doses

T1 sequence (P48040 whole entry): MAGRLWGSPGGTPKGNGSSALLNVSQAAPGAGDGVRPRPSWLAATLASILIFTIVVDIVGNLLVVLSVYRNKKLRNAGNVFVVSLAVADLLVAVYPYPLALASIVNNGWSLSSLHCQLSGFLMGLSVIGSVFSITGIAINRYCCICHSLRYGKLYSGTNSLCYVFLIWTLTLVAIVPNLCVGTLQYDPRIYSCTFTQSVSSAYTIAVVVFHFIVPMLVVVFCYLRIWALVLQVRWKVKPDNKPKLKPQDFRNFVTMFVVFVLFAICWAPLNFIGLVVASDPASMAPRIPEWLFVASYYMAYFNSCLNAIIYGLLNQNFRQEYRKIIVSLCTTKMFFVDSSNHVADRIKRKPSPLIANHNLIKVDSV

- affinity for melatonin receptors (in words) (melatonin receptors): extremely powerful affinity
Structure (SMILES): CC(=O)NCCc1cccc2ccc3c(c12)CC(C)O3 (stereo not shown) [Example 119, 2,3-DIHYDRO-2-METHYL-4-(2-ACETAMIDOETHYL)1-NAPHTHO[2,1-b]-FURAN]

Structure (SMILES): CNC(=O)NCCc1cccc2ccc3c(c12)CC(C)O3 (stereo not shown) [Example 120, N-[2-(2,3-DIHYDRO-2-METHYL-1-NAPHTHO[2,1-b]FURAN-4-YL)ETHYL]-N'-METHYLUREA]
- results in the foregoing pharmacological Examples, compared with the compounds of Examples 119 and 131 [1]: approximately equally statistically-significant results

Structure (SMILES): CC(=O)NCCc1coc2ccc3c(c12)CCCO3 [Example 131, N-[2-(8,9-Dihydro-7H-furo[3,2-f]chromen-1-yl)ethyl]acetamide]
- latency of the first entry into the unfamiliar compartment (C3H/He mice; [2]): dose-dependently reduced
- locomotion in the unfamiliar compartment (C3H/He mice; [2]): increased the locomotion in the unfamiliar compartment
- numbers of attempts towards the unfamiliar compartment (C3H/He mice; [2]): dose-dependently reduced
- number of rears in the unfamiliar compartment (C3H/He mice; at 25 mg/kg (highest dose)): significantly increased the number of rears in the unfamiliar compartment
- time spent in the unfamiliar compartment (C3H/He mice; at 5 and 25 mg/kg): significantly increased the time spent in the unfamiliar compartment

From US6071946A, “Tricyclic urea compounds” (Adir et Compagnie, priority 1994, dated 2000)
